The source of these data is patent publication US20220348592A1, “FUSED HETEROCYCLIC DERIVATIVES” (Janssen Sciences Ireland Unlimited Company, priority 2019, published 2022).

The subject of one series is HBV. Description: Anti-HBV activity: intracellular HBV DNA by real-time PCR in HepG2.117 cell line. The format is cell-based, Hepatitis B virus. As to conditions: Hepatitis B virus, 72 h; HepG2.117 cells, 3 days of treatment, intracellular HBV DNA by real-time PCR, mean value; read-out: HBV-AVE-HepG2.117 EC50 (μM, mean value). The procedure, abridged: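 HepG2.117 cells, a Tet-off inducible HBV-producing line, induced to replicate HBV and then treated with serially diluted compound. After 3 days, intracellular HBV DNA quantified by real-time PCR with HBV-specific primers and probe.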
On the technique in general: Real-time PCR tracks product formation cycle by cycle.

A short description of series [1]: Cytotoxicity in HepG2.117 cells, ATPlite Luminescence Assay. The format is cell-based, human. The conditions noted are these: human, incubated for 3 days, mean value, read-out: TOX-HepG2.117 CC50 (μM, mean value). As to the method: Cytotoxicity of the compounds was tested using HepG2 or HepG2.117 cells, incubated for 3 days in the presence of compounds. The viability of the cells was assessed using the PERKIN ELMER ATPlite Luminescence Assay System.”
A general note: ATP-based viability assays read luminescence as a measure of living cells.

As for `COc1ccc(CN2CCn3nc4c(c3C2=O)CN(C(=O)c2cccc(Cl)c2)CC4)cc1` [Example C54], in the series with HBV, the EC50 was found to be 1.99 µM. In addition, the 50% cytotoxic concentration (CC50) at 3 days in series [1] came to 13.6 µM.
As to `COc1ccc(CN2CCn3nc4c(c3C2=O)CN(C(=O)c2cc(F)c(F)c(F)c2)CC4)cc1` [Example C56], the EC50 in the series with HBV amounted to 0.962 µM. Further, the CC50 at 3 days in series [1] is 28.4 µM.
Taken in the same sequence, the figures for `COc1ccc(CN2CCn3nc4c(c3C2=O)CN(C(=O)c2ccc(Cl)c(C(F)F)c2)CC4)cc1` [Example C57] were 0.04 µM and 18.9 µM.
With `COc1ccc(CCN2CCn3nc4c(c3C2=O)CN(C(=O)c2ccc(Cl)c(Cl)c2)[C@H](C)C4)cc1` [Example C58], in the series on HBV, the EC50 is 0.531 µM. The CC50 at 3 days in series [1] turned out to be 18 µM.
Regarding `C[C@@H]1Cc2nn3c(c2CN1C(=O)c1ccc(Cl)c(Cl)c1)C(=O)N(Cc1ncccn1)CC3` [Example C60], the EC50 in the series on HBV was 0.565 µM. In addition, the CC50 at 3 days in series [1] was over 50 µM.
For `COc1ccc(CN2CCn3nc4c(c3C2=O)CN(C(=O)c2ccc(C(F)F)c(Cl)c2)CC4)cc1` [Example C62], in that order: 0.13 µM and 9.31 µM.
Taken in the same sequence, the figures for `COc1ccc(CN2CCn3nc4c(c3C2=O)CN(C(=O)c2ccc(Cl)c(C#N)c2)CC4)cc1` [Example C64] were 0.089 µM and over 49 µM.
As for `C[C@@H]1Cc2nn3c(c2CN1C(=O)c1ccc(Cl)c(Cl)c1)C(=O)N(Cc1cnccn1)CC3` [Example C65], in the series with HBV, the EC50 came out at 0.299 µM. For the same compound, the CC50 at 3 days in series [1] was over 50 µM.
For `C[C@@H]1Cc2nn3c(c2CN1C(=O)c1ccc(Cl)c(Cl)c1)C(=O)N(Cc1cccc(OC(F)F)c1)CC3` [Example C66], in the series on HBV, the EC50 was 0.042 µM. For the same compound, the CC50 at 3 days in series [1] worked out at 9.18 µM.
For `C[C@@H]1Cc2nn3c(c2CN1C(=O)c1ccc(Cl)c(Cl)c1)C(=O)N(Cc1ccccc1OC(F)F)CC3` [Example C67], the EC50 in the series on HBV was determined as 0.07 µM. For the same compound, in series [1], the half-maximal cytotoxic concentration (CC50) at 3 days turned out to be 22.5 µM.
Taken in the same sequence, the figures for `COc1ccc(CN2CCn3nc4c(c3C2=O)CN(C(=O)c2ccc(C(F)F)c(F)c2)CC4)cc1` [Example C68] were 0.321 µM and 10.6 µM.
Taken in the same sequence, the figures for `C[C@@H]1Cc2nn3c(c2CN1C(=O)c1ccc(Cl)c(Cl)c1)C(=O)N(Cc1ccc(OC(F)F)cn1)CC3` [Example C69] were 0.063 µM and 14.5 µM.
On to `COc1ccc(CN2CCn3nc4c(c3C2=O)CN(C(=O)c2ccc(C(F)F)c(C#N)c2)CC4)cc1` [Example C70], for which, in the series on HBV, the EC50 was 0.232 µM. Besides, in series [1], the CC50 at 3 days was over 50 µM.
For `O=C(c1ccc(Cl)cc1F)N1CCc2nn3c(c2C1)C(=O)N(Cc1ccccn1)CC3` [Example C72], in that order: over 2.5 µM and over 50 µM.
On to `O=C(c1cnc(Cl)c(Cl)c1)N1CCc2nn3c(c2C1)C(=O)N(Cc1ccccn1)CC3` [Example C73], for which the EC50 in the series on HBV is over 2.5 µM. Further, in series [1], the cytotoxic concentration (CC50) at 3 days was over 50 µM.
Taken in the same sequence, the figures for `Cc1cc(Cl)ccc1C(=O)N1CCc2nn3c(c2C1)C(=O)N(Cc1ccccn1)CC3` [Example C74] were over 2.5 µM and over 50 µM.
Taken in the same sequence, the figures for `COc1cc(Cl)ccc1C(=O)N1CCc2nn3c(c2C1)C(=O)N(Cc1ccccn1)CC3` [Example C76] were 0.983 µM and over 25 µM.
For `O=C(c1ccc(Cl)c(F)c1)N1CCc2nn3c(c2C1)C(=O)N(Cc1ccccn1)CC3` [Example C78], in that order: 0.707 µM and over 50 µM.
With `C[C@@H]1Cc2nn3c(c2CN1C(=O)c1ccc(Cl)c(Cl)c1)C(=O)N(Cc1ccccc1F)CC3` [Example C80], the EC50 with HBV turned out to be 0.05 µM. For the same compound, the CC50 at 3 days in series [1] is 26.1 µM.
Taken in the same sequence, the figures for `C[C@@H]1Cc2nn3c(c2CN1C(=O)c1ccc(Cl)c(Cl)c1)C(=O)N(Cc1ccc(C#N)cc1)CC3` [Example C82] were 0.019 µM and 32.5 µM.
For `O=C(c1ccc(Cl)c(Cl)c1)N1CCc2nn3c(c2C1)C(=O)N(Cc1ccccn1)CCC3` [Example C83, 2-(3,4-dichlorobenzoyl)-10-(pyridin-2-ylmethyl)-1,2,3,4,7,8,9,10-octahydro-11H-pyrido[4′,3′:3,4]pyrazolo[1,5-a][1,4]diazepin-11-one], in that order: 0.229 µM and over 50 µM.
For `COc1ccc(C(C)N2CCn3nc4c(c3C2=O)CN(C(=O)c2ccc(Cl)c(Cl)c2)[C@H](C)C4)cc1F` (some centres unmarked) [Example C86], in that order: 0.046 µM and over 50 µM.
Regarding `CC(c1cc[nH]n1)N1CCn2nc3c(c2C1=O)CN(C(=O)c1ccc(Cl)c(Cl)c1)[C@H](C)C3` (some centres unmarked) [Example C87], the EC50 with HBV stood at 0.066 µM. Further, the CC50 at 3 days in series [1] was over 50 µM.
Taken in the same sequence, the figures for `CC(c1ccc(C#N)cc1)N1CCn2nc3c(c2C1=O)CN(C(=O)c1ccc(Cl)c(Cl)c1)[C@H](C)C3` (some centres unmarked) [Example C88] were 0.038 µM and over 48 µM.
For `C[C@@H]1Cc2nn3c(c2CN1C(=O)c1ccc(Cl)c(Cl)c1)C(=O)N(C(C)(C)c1ccc(OC(F)F)cc1)CC3` [Example C90], in that order: 0.667 µM and 21.9 µM.
As for `C[C@@H]1Cc2nn3c(c2CN1C(=O)c1ccc(Cl)c(Cl)c1)C(=O)N(Cc1ccc(Cl)nc1)CC3` [Example C91], the EC50 with HBV stood at 0.083 µM. Besides, the CC50 at 3 days in series [1] was 36.7 µM.
Taken in the same sequence, the figures for `COc1ccc(C(C)N2CCn3nc4c(c3C2=O)CN(C(=O)c2ccc(Cl)c(Cl)c2)[C@H](C)C4)cc1OC` (some centres unmarked) [Example C92] were 0.025 µM and 24.4 µM.
For `CC(c1ccccc1)N1CCn2nc3c(c2C1=O)CN(C(=O)c1ccc(Cl)c(Cl)c1)[C@H](C)C3` (some centres unmarked) [Example C93], in that order: 0.055 µM and 30 µM.
For `C[C@@H]1Cc2nn3c(c2CN1C(=O)c1cc2c(Cl)c(Cl)ccc2[nH]1)C(=O)N(Cc1ccccn1)CC3` [Example C94, (R)-2-(4,5-dichloro-1H-indole-2-carbonyl)-3-methyl-9-(pyridin-2-ylmethyl)-1,2,3,4,8,9-hexahydropyrido[4′,3′:3,4]pyrazolo[1,5-a]pyrazin-10(7H)-one], in that order: 0.162 µM and 4.77 µM.
Take `C[C@@H]1Cc2nn3c(c2CN1C(=O)c1ccc(Cl)c(Cl)c1)C(=O)N(Cc1cccc(F)c1C#N)CC3` [Example C95]: in the series on HBV, the half-maximal effective concentration (EC50) amounted to 0.2 µM. In addition, in series [1], the CC50 at 3 days was over 47 µM.
For `C[C@@H]1Cc2nn3c(c2CN1C(=O)c1cc2c(Cl)cccc2[nH]1)C(=O)N(Cc1ccccn1)CC3` [Example C96], in that order: 0.025 µM and 10.7 µM.
Consider `C[C@@H]1Cc2nn3c(c2CN1C(=O)c1cc2c(F)c(F)c(F)cc2[nH]1)C(=O)N(Cc1ccccn1)CC3` [Example C97], for which, in the series with HBV, the EC50 turned out to be 0.011 µM. Also, the CC50 at 3 days in series [1] is 9.79 µM.
Regarding `CC(c1ccc(Br)cc1)N1CCn2nc3c(c2C1=O)CN(C(=O)c1ccc(Cl)c(Cl)c1)[C@H](C)C3` (some centres unmarked) [Example C98], in the series on HBV, the EC50 stood at 0.073 µM. Also, the CC50 at 3 days in series [1] worked out at 9.83 µM.
For `CC(c1ccccn1)N1CCn2nc3c(c2C1=O)CN(C(=O)c1ccc(Cl)c(Cl)c1)[C@H](C)C3` (some centres unmarked) [Example C99], in that order: 0.072 µM and over 50 µM.
For the compound `C[C@@H]1Cc2nn3c(c2CN1C(=O)c1cc2c(C#N)c(F)ccc2[nH]1)C(=O)N(Cc1ccccn1)CC3` [Example C100], in the series with HBV, the EC50 turned out to be 0.085 µM. In addition, in series [1], the CC50 at 3 days stood at 15.5 µM.
`C[C@@H]1Cc2nn3c(c2CN1C(=O)c1cc2c(F)c(F)ccc2[nH]1)C(=O)N(Cc1ccccn1)CC3` [Example C101]: the EC50 with HBV came to 0.036 µM. Further, in series [1], the CC50 at 3 days amounted to 8.95 µM.
For `C[C@@H]1Cc2nn3c(c2CN1C(=O)c1cc2c(Cl)c(F)ccc2[nH]1)C(=O)N(Cc1ccccn1)CC3` [Example C102], in that order: 0.019 µM and 7.14 µM.
For `CC(c1cncnc1)N1CCn2nc3c(c2C1=O)CN(C(=O)c1ccc(Cl)c(Cl)c1)[C@H](C)C3` (some centres unmarked) [Example C103], in that order: 0.39 µM and over 50 µM.
Taken in the same sequence, the figures for `C[C@@H]1Cc2nn3c(c2CN1C(=O)c1ccn2cc(C(F)(F)F)nc2c1)C(=O)N(Cc1ccccn1)CC3` [Example C104] were 0.632 µM and over 50 µM.
With `COc1ccc(CN2CCn3nc4c(c3C2=O)CN(C(=O)c2ccc(Cl)c(Cl)c2)[C@H](C)C4)cn1` [Example C106], the EC50 with HBV turned out to be 0.031 µM. Also, the CC50 at 3 days in series [1] is 33.8 µM.
`Cc1c(F)ccc2[nH]c(C(=O)N3Cc4c(nn5c4C(=O)N(Cc4ccccn4)CC5)C[C@H]3C)cc12` [Example C107]: in the series with HBV, the EC50 is 0.015 µM. Moreover, the CC50 at 3 days in series [1] turned out to be 13.2 µM.
For `C[C@@H]1Cc2nn3c(c2CN1C(=O)c1cc2c(F)ccc(F)c2[nH]1)C(=O)N(Cc1ccccn1)CC3` [Example C108], in that order: 0.085 µM and 20 µM.
Regarding `Cc1cc(F)cc2[nH]c(C(=O)N3Cc4c(nn5c4C(=O)N(Cc4ccccn4)CC5)C[C@H]3C)cc12` [Example C109], in the series with HBV, the EC50 is 0.013 µM. In addition, the 50% cytotoxic concentration (CC50) at 3 days in series [1] turned out to be 18.9 µM.
Taken in the same sequence, the figures for `C[C@@H]1Cc2nn3c(c2CN1C(=O)c1cc2c(F)cc(F)cc2[nH]1)C(=O)N(Cc1ccccn1)CC3` [Example C110] were 0.017 µM and 16 µM.
For the compound `Cc1cc(C(=O)N2Cc3c(nn4c3C(=O)N(Cc3ccccn3)CC4)C[C@H]2C)ccc1Cl` [Example C111], in the series with HBV, the EC50 turned out to be 0.086 µM. The CC50 at 3 days in series [1] is over 50 µM.
For `C[C@@H]1Cc2nn3c(c2CN1C(=O)c1ccc(Cl)c(C(F)(F)F)c1)C(=O)N(Cc1ccccn1)CC3` [Example C112], in that order: 0.025 µM and over 50 µM.

Usually EC50 stands for the midpoint of the concentration-response curve. The CC50 is the concentration giving 50% cytotoxicity.
